Measured values as given in US20120277316A1, “METHODS AND COMPOSITIONS FOR TREATING AND PREVENTING PARENTERAL NUTRITION ASSOCIATED LIVER DISEASE” (University of Tennesse Research Foundation a university, priority 2010, published 2012).

Tests used:
Format in all cases: cell-based
[1] = tested on: caspase 3/7 activity in HepG2 cells; experiment: Apo-ONE Homogeneous Caspase-3/7 Assay, CDCA-induced apoptosis; settings: for caspase-3/7 attenuation: HepG2 cells, CDCA 200 μM, 12 hours, 10 μM EPA, 10 μM DHA, or 5 μM EPA+5 μM DHA
Method: Cultured HepG2 cells were treated with 50, 100, or 200 μM CDCA in the presence and absence of 10 μM EPA, 10 μM DHA, or 5 μM EPA+5 μM DHA. Controls included cells incubated with vehicle alone (EtOH). Apoptosis was evaluated after 4, 8, 12, 18, and 24 hours using the Apo-ONE®
(§1) Homogeneous Caspase-3/7 Assay (Promega Corporation, Madison, Wis., United States of America). Specific apoptotic mediators (Fas and TRAIL-R2) were evaluated at 0.5, 1, 1.5, 2, and 4 hrs using quantitative real-time RT-PCR.
(§2) Experimental Design. HepG2 cells were plated and grown to 95% confluence for all experiments, except for fluorescent cell staining, where cells where grown to 50% confluence. Cells were treated with CDCA 50-200 mM (Sigma-Aldrich), ±EPA 1-10 μM (Nu-check Prep, Elysian, Minn., United States of America), and ±DHA 10 μM (Nu-check Prep). HepG2 cells were treated for 4, 8, 12, 18, 24 hours for cell viability and caspase assays. Cells were treated for 0.5, 1, 1.5, 2, 4 hour for mRNA analysis by quantitative real time RT-PCR.
Caspase assay. Apoptosis was evaluated using the Apo-ONE® Homogeneous Caspase-3/7 Assay purchased from Promega Corporation (Madison, Wis., United States of America) and performed according to the manufacturer's instructions. HepG2 cells were treated for 4, 8, 12, 18, 24 hours followed by the addition of caspase-3/7 reagent and incubation for 4 hours in the dark on a rocking shaker at low speed. Results were read at fluorescein 485 nm/535 nm with a Victor 2, Perkin-Elmer Wallace 1420 multilabel counter (Shelton, Conn., United States of America).

HepG2 cells [2] = experiment: Cell viability by trypan blue staining
Method: as §2, with “HepG2 cells were treated for 4, 8, 12, 18, 24 hours for cell viability and caspase assays.” left out
(§3) Cell Viability. Cell viability was evaluated after treating cells, as described above, followed by trypsinization in order to disperse cells into a 0.2% trypan blue (Sigma-Aldrich) cell suspension mixture. After staining, 10 μL of cell suspension was placed on a hemocytometer with a glass cover slip and evaluated using an inverted microscope (25× magnification). All cells were counted and viability was accessed.

[3] = Cell viability by trypan blue staining; settings: human, HepG2 cells; 2 hour treatment with CDCA alone; trypan blue; read-out: viable cells
Method: as §2, with “HepG2 cells were treated for 4, 8, 12, 18, 24 hours for cell viability and caspase assays.” left out
as §3

HepG2 cells [4] = experiment: Nuclear staining with ethidium bromide/acridine orange; settings: cells treated with the substance alone, 2 hours
Method: Nuclear staining. Cells were grown on glass inserts and once 50% confluence was achieved, cells were treated with CDCA±EPA for 2 hours. Immediately following treatment, cells were washed with phosphate buffered saline (PBS), fixed with methanol (−10° C.) for 15 minutes, then washed with PBS. Fixed cells were then stained for 5 minutes with ethidium bromide (100 μg/ml) and acridine orange (100 μg/ml) (EB/AO) dye mixture (Sigma-Aldrich) in PBS. Following staining, cells underwent 5 washes prior to being mounted on glass slides using VECTASHIELD® mounting medium and analyzed using an Olympus America Inc., IX50-FLA inverted reflected light fluorescence microscope (Lake Success, N.Y., United States of America).

[5] = tested on: pro-inflammatory cytokine (IL-6) mRNA in HepG2 cells; experiment: IL-6 mRNA by quantitative RT-PCR; settings: CDCA 200 uM, 2 hour incubation
Method: Quantitative RT-PCR. Total RNA was isolated from confluent cultures according to manufacturer's instructions with TRIzol™ reagent (Invitrogen, Carlsbad, Calif., United States of America). First-strand cDNAs were synthesized from 2 μg of total RNA in a 21 μl reaction volume using the SuperScript™ First-Strand Synthesis System for RT-PCR (Invitrogen) in accordance with the manufacturer's instructions. Quantitative PCR was performed in triplicate using the Model 7500 Sequence Detection System (Applied Biosystems, Foster City, Calif., United States of America). Independent PCRs were performed using the same cDNA for both the gene of interest and the 18S rRNA, using the SYBR Green PCR Master Mix (Applied Biosystems). Specific primers were designed for the genes of interest (Fas, TRAIL-R2, and IL-6). […] The change in fluorescence of SYBR Green in every cycle was monitored by the system software, and the threshold cycle (CT) above the background for each reaction was calculated. […] The mRNA expression level relative to the calibrator was expressed as 2^−ΔΔCT. […]
IL6 mRNA levels were measured by quantitative RT-PCR after a 2 hour incubation in a HepG2 cells. […] Statistical significance was determined using an ANOVA with Tukey's LSD. […] Statistical significance was determined using an ANOVA with Tukey's LSD.

Fas mRNA in HepG2 cells = experiment: Fas mRNA by quantitative real-time RT-PCR; settings: HepG2 cells incubated with CDCA 200 μM alone; 0.5 hours; relative to vehicle control
Method: as §1
as §2, with “Cells were treated with CDCA 50-200 mM (Sigma-Aldrich), ±EPA 1-10 μM (Nu-check Prep, Elysian, Minn., United States of America), and ±DHA 10 μM (Nu-check Prep).” left out
Quantitative RT-PCR. Total RNA was isolated from confluent cultures according to manufacturer's instructions with TRIzol™ reagent (Invitrogen, Carlsbad, Calif., United States of America). First-strand cDNAs were synthesized from 2 μg of total RNA in a 21 μl reaction volume using the SuperScript™ First-Strand Synthesis System for RT-PCR (Invitrogen) in accordance with the manufacturer's instructions. Quantitative PCR was performed in triplicate using the Model 7500 Sequence Detection System (Applied Biosystems, Foster City, Calif., United States of America). […] The change in fluorescence of SYBR Green in every cycle was monitored by the system software, and the threshold cycle (CT) above the background for each reaction was calculated. […] The mRNA expression level relative to the calibrator was expressed as 2^−ΔΔCT.

SMILES	caspase-3/7 attenuation [1]	viable cells (HepG2 cells [2]; 2 hour treatment with CDCA and EPA, trypan blue)	total cell count relative to cells exposed to medium alone (HepG2 cells [2]; treatment with CDCA and EPA)	apoptotic effect of CDCA (caspase 3/7 activity) ([1]; CDCA 50-200 μM, across all time points (4-24 hours))	time of peak caspase activity ([1]; HepG2 cells treated with 200 μM CDCA)	viability at 2 h [3]	EB/AO nuclear staining appearance (HepG2 cells [4])	pro-inflammatory cytokine (IL-6) mRNA expression [5]	increase in Fas mRNA levels (Fas mRNA in HepG2 cells)
CC/C=C\C/C=C\C/C=C\C/C=C\C/C=C\CCCC(=O)O [EPA, eicosapentaenoic acid]	22%	100%	75%	–	–	–	–	–	–
C[C@H](CCC(=O)O)[C@H]1CC[C@H]2[C@@H]3[C@H](O)C[C@@H]4C[C@H](O)CC[C@]4(C)[C@H]3CC[C@]12C [CDCA, chenodeoxycholic acid]	–	–	–	dose-dependent	12 h	88%	cellular integrity is lost	significantly increased	4.7 fold
CC/C=C\C/C=C\C/C=C\C/C=C\C/C=C\C/C=C\CCC(=O)O [DHA, docosahexaenoic acid]	9%	–	–	–	–	–	–	–	–
